Measurements as given in patent US20230103631A1, “PEPTIDES AS SELECTIVE GIP RECEPTOR AGONISTS” (Sanofi, priority 2020, published 2023).
*1 amine or outer side, *2 acyl side, *3 side chain or, on linkers, in order; H or OH if unused. Where a SMILES comes first, the peptide text is derived from it. Side-chain parts run from the residue outwards. [ ]: non-standard residue; d: D form. The star is where a group is joined. C20 diacid = O=C(O)CCCCCCCCCCCCCCCCCCC(=O)*; C18 diacid = O=C(O)CCCCCCCCCCCCCCCCC(=O)*; γGlu = O=C(O)[C@H](CCC(=O)[*:2])N[*:1]; AEEA = NCCOCCOCC(=O)O; Aib = CC(C)(N)C(=O)O; Sar = CNCC(=O)O

Tests used:
[1] = Chemical stability assessment (relative purity loss by UHPLC-UV); type: physicochemical; conditions: Chemical stability buffer system A: 20 mM phosphate buffer pH 7.4
Experimental: Purity of a peptide batch was determined through UHPLC/MS prior to chemical stability measurement. The target concentration was […] pure compound. Solutions from solid samples were prepared in the following buffer systems with a concentration of ˜300 μM compound based on the previously determined % purity:
Chemical stability buffer system A) 20 mM phosphate buffer pH 7.4,
Chemical stability buffer system B) 8 mM phosphate buffer pH 7.4, 14 mg/ml propylene glycol, 5.5 mg/ml phenol
Chemical stability buffer system C) 100 mM phosphate buffer pH 7.4, 2.7 mg/ml m-cresol
Prepared solutions were filtered through […] pore size and filled into sterilized glass containers under laminar flow conditions.
Glass containers were stored for 28 days at 5 and 40° C. After this time, the samples were centrifuged for 15 min at 2500 RCF. Then 1.5 μl of the undiluted supernatant were analysed with UHPLC-UV.
The chemical stability was rated through the relative loss of purity calculated by the equation:
[(purity after 28 days at 5° C.)−(purity after 28 days at 40° C.)]/(purity after 28 days at 5° C.)]*100%
The purity is calculated as
[(peak area peptide)/(total peak area)]*100%
The analytical methods used were Analytical UHPLC Method B or C.
Peptide samples were prepared in Chemical stability buffer system A or B and stability was assessed as described in Methods.

[2] = biological target: T1, human GIP receptor (hGIPR) (Homo sapiens, UniProt P48546); assay: Binding assay, displacement of [125I]GIP from HEK-293 membranes expressing GIPR; conditions: [125I]GIP displacement
T1 sequence (P48546 22-466): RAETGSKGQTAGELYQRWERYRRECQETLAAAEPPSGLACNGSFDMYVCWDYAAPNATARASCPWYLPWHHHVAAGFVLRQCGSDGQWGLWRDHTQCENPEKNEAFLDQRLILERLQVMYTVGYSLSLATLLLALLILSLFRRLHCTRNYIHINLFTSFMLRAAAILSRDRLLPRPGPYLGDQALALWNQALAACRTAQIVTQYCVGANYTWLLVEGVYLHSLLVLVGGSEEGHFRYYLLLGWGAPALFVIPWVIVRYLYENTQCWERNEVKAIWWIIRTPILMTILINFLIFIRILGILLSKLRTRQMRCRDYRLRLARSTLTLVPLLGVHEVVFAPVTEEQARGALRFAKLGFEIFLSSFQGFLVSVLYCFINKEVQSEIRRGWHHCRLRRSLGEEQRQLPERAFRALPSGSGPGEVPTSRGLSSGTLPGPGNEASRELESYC
Experimental: HEK-293 cells recombinantly over-expressing GIPR or GLP-1R were grown to 50% confluency, washed with warm 1×PBS (Gibco) and detached in HEPES/EDTA-buffer (100 mM HEPES pH 7.5, 5 mM EDTA). Cells were harvested by centrifugation at 4° C. and 3000×g and the pellets were stored at −80° C. until further processing.
After thawing on ice, pellets were resuspended in HEPES/EDTA-buffer and homogenized on ice for 1 min using Ultra-Turray T25. After subsequent sonification the cell debris was removed by centrifugation at 1000×g and 4° C. Supernatants were then ultra-centrifuged at 100000×g and 4° C. under vacuum for 30 min. Pellets were resuspended in HEPES/EDTA/NaCl-buffer (20 mM HEPES, 1 mM EDTA, 150 mM NaCl; add 1 Complete Mini Protease inhibitor cocktail to 10 ml buffer) and protein content was determined via BCA-Protein assay.

[3] = biological target: human GLP-1 receptor (hGLP-1R) (Homo sapiens, UniProt P43220); assay: cAMP HTRF assay, HEK-293 cell line over-expressing human GLP-1 receptor; type: cell-based; conditions: HEK-293, cAMP, 0% HSA
In short: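 Thawed HEK-293 cells over-expressing human GLP-1R (5000 cells/well) in HBSS/20 mM HEPES buffer, with 0.1% HSA where stated, incubated with compound for 30 min at room temperature. Generated cAMP quantified by HTRF.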

human GIP receptor = biological target: T2, human GIP receptor (Homo sapiens, UniProt P48546); assay: cAMP HTRF assay in human adipocytes endogenously expressing the human GIP receptor; type: cell-based; conditions: for Emax: read-out: hGIPR Emax
T2 construct: human adipocytes endogenously expressing the human GIP receptor; host or cells: human preadipocytes (Lonza) differentiated to adipocytes
T2 sequence (P48546 22-466): T1 sequence (P48546 22-466)
Experimental: For this, one vial of human preadipocytes (˜10^6 cells; Lonza) was thawed in a T-75 cell culture dish.
After 3 days, the cells were washed with PBS and 1.5 ml Trypsin, incubated for 4 min, then resuspended in medium, centrifugated for 10 min @ 300 rcf RT, resuspended again and distributed to four T-75 cell culture dishes.
After 5 days, the cells were washed with PBS and 1.5 ml Trypsin, incubated for 4 min, then resuspended in medium, centrifugated for 10 min @ 300 rcf RT, resuspended again and sawn in T-75 dishes (2.5×10^6 cells per dish) in 15 ml Differentiation medium each.
After 6 days of differentiation, 5000 cells per well were dispensed on a 96-well plate (#CLS3694 from Corning®, Sigma-Aldrich). For measurement of cAMP generation, 25 μL of test compound was added to each well of the 96-well plate, followed by incubation for 30 min at room temperature.
The cAMP generated following test compound stimulation was determined using a kit from Cisbio Corp. based on HTRF (Homogenous Time Resolved Fluorescence). The cAMP assay was performed according to manufacturer's instructions (Cisbio).
The cAMP content of cells was determined using a kit from Cisbio Corp. based on HTRF (Homogenous Time Resolved Fluorescence).

physchem = type: physicochemical; conditions: for Soluble amount: 24 h, pH 7.4; for solubility at 24 h: pH 7.4, Soluble amount
In short: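 Peptide at 10 mg/ml (purity-corrected) in 100 mM phosphate pH 7.4, alone or with 2.7 mg/ml m-cresol; 1 h gentle agitation, then 24 h at 5 °C. Supernatant after 15 min at 2500 RCF quantified by UHPLC-UV against reference peptide, adjusted for extinction coefficients.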

human GLP-1 receptor (hGLP-1R), sequence (P43220 24-463): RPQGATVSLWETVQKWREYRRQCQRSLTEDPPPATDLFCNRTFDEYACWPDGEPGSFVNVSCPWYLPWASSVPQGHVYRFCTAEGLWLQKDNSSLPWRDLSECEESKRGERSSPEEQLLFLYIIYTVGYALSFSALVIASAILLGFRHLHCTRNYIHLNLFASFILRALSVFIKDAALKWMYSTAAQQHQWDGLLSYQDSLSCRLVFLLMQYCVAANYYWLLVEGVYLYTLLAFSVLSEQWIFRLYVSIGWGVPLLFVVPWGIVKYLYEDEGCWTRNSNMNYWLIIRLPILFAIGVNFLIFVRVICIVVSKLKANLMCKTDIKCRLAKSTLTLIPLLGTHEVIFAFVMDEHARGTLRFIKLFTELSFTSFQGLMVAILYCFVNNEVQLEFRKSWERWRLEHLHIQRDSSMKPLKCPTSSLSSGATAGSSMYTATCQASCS

SMILES	Relative purity loss over 28 days at 40° C. [1] [%]	IC50 [2] [nM]	EC50 [3] [nM]	Emax (human GIP receptor) [%]	Soluble amount (physchem) [mg/mL]	solubility at 24 h (physchem) [µg/mL]	EC50 (human GIP receptor; read-out: hGIPR EC50) [nM]
CC[C@H](C)[C@H](NC(=O)[C@H](Cc1ccccc1)NC(=O)[C@H](CCC(=O)O)NC(=O)[C@H](CCC(=O)O)NC(=O)[C@H](CCC(N)=O)NC(=O)[C@H](Cc1c[nH]cn1)NC(=O)[C@@H](NC(=O)[C@H](CCCNC(=N)N)NC(=O)[C@H](CC(=O)O)NC(=O)[C@H](CCCCNC(=O)COCCOCCNC(=O)COCCOCCNC(=O)CC[C@H](NC(=O)CCCCCCCCCCCCCCCCCCC(=O)O)C(=O)O)NC(=O)C(C)(C)NC(=O)[C@@H](NC(=O)[C@H](CO)NC(=O)[C@H](CC(C)C)NC(=O)[C@H](CC(=O)O)NC(=O)[C@H](CO)NC(=O)[C@@H](NC(=O)[C@H](Cc1ccccc1)NC(=O)[C@@H](NC(=O)CNC(=O)[C@H](CCC(=O)O)NC(=O)C(C)(C)NC(=O)[C@@H](N)Cc1ccc(O)cc1)[C@@H](C)O)[C@@H](C)CC)[C@@H](C)CC)[C@@H](C)CC)C(=O)N[C@@H](CCC(=O)O)C(=O)N[C@@H](Cc1c[nH]c2ccccc12)C(=O)N[C@@H](CC(C)C)C(=O)N[C@@H](CC(C)C)C(=O)N[C@@H](C)C(=O)N[C@@H](CCC(N)=O)C(=O)NCC(=O)N1CCC[C@H]1C(=O)N[C@@H](CO)C(=O)N[C@@H](CO)C(=O)NCC(=O)N[C@@H](C)C(=O)N1CCC[C@H]1C(=O)N1CCC[C@H]1C(=O)N1CCC[C@H]1C(=O)N[C@@H](CO)C(N)=O [SEQ ID NO: 10, H2N-Y-Aib-E-G-T-F-I-S-D-I-S-I-Aib-K[{AEEA}2-gGlu-C20OH]-DRIHQEEFIEWILAQGPSSGAPPPS-NH2] (H-Y[Aib]EGTFISDLSI[Aib]K([AEEA-AEEA-γGlu-C20 diacid])DRIHQEEFIEWLLAQGPSSGAPPPS-NH2)	3.3	0.3	> 10	127	>8.1	> 8000	–
CC[C@H](C)[C@H](NC(=O)[C@H](Cc1ccccc1)NC(=O)[C@H](CCC(=O)O)NC(=O)[C@H](CCC(=O)O)NC(=O)[C@H](CCC(N)=O)NC(=O)[C@H](Cc1c[nH]cn1)NC(=O)[C@@H](NC(=O)[C@H](CCCNC(=N)N)NC(=O)[C@H](CC(=O)O)NC(=O)[C@H](CCCCNC(=O)COCCOCCNC(=O)COCCOCCNC(=O)CC[C@H](NC(=O)CCCCCCCCCCCCCCCCC(=O)O)C(=O)O)NC(=O)C(C)(C)NC(=O)[C@@H](NC(=O)[C@H](CO)NC(=O)[C@H](CC(C)C)NC(=O)[C@H](CC(=O)O)NC(=O)[C@H](CO)NC(=O)[C@@H](NC(=O)[C@H](Cc1ccccc1)NC(=O)[C@@H](NC(=O)CNC(=O)[C@H](CCC(=O)O)NC(=O)C(C)(C)NC(=O)[C@@H](N)Cc1ccc(O)cc1)[C@@H](C)O)[C@@H](C)CC)[C@@H](C)CC)[C@@H](C)CC)C(=O)N[C@@H](CCC(=O)O)C(=O)N[C@@H](Cc1c[nH]c2ccccc12)C(=O)N[C@@H](CC(C)C)C(=O)N[C@@H](CC(C)C)C(=O)N[C@@H](C)C(=O)N[C@@H](CCC(N)=O)C(=O)NCC(=O)N1CCC[C@H]1C(=O)N[C@@H](CO)C(=O)N[C@@H](CO)C(=O)NCC(=O)N[C@@H](C)C(=O)N1CCC[C@H]1C(=O)N1CCC[C@H]1C(=O)N1CCC[C@H]1C(=O)N[C@@H](CO)C(=O)O [SEQ ID NO: 11, H2N-Y-Aib-E-G-T-F-I-S-D-I-S-I-Aib-K[{AEEA}2-gGlu-C18OH]-DRIHQEEFIEWILAQGPSSGAPPPS-OH] (H-Y[Aib]EGTFISDLSI[Aib]K([AEEA-AEEA-γGlu-C18 diacid])DRIHQEEFIEWLLAQGPSSGAPPPS-OH)	6.1	0.5	> 10	122	>9.8	> 9800	–
CC[C@H](C)[C@H](NC(=O)[C@H](CCCNC(=N)N)NC(=O)[C@H](CC(=O)O)NC(=O)[C@H](CCCCNC(=O)CN(C)C(=O)CN(C)C(=O)CN(C)C(=O)CC[C@H](NC(=O)CCCCCCCCCCCCCCCCC(=O)O)C(=O)O)NC(=O)C(C)(C)NC(=O)[C@@H](NC(=O)[C@H](CO)NC(=O)[C@H](CC(C)C)NC(=O)[C@H](CC(=O)O)NC(=O)[C@H](CO)NC(=O)[C@@H](NC(=O)[C@H](Cc1ccccc1)NC(=O)[C@@H](NC(=O)CNC(=O)[C@H](CCC(=O)O)NC(=O)C(C)(C)NC(=O)[C@@H](N)Cc1ccc(O)cc1)[C@@H](C)O)[C@@H](C)CC)[C@@H](C)CC)C(=O)N[C@@H](Cc1c[nH]cn1)C(=O)N[C@@H](CCC(N)=O)C(=O)NC(C)(C)C(=O)N[C@@H](CCC(=O)O)C(=O)N[C@@H](Cc1ccccc1)C(=O)N[C@H](C(=O)N[C@@H](CCC(=O)O)C(=O)N[C@@H](Cc1c[nH]c2ccccc12)C(=O)N[C@@H](CC(C)C)C(=O)N[C@@H](CC(C)C)C(=O)N[C@@H](C)C(=O)N[C@@H](CCC(N)=O)C(=O)NCC(=O)N1CCC[C@H]1C(=O)N[C@@H](CO)C(=O)N[C@@H](CO)C(=O)NCC(=O)N[C@@H](C)C(=O)N1CCC[C@H]1C(=O)N1CCC[C@H]1C(=O)N1CCC[C@H]1C(=O)N[C@@H](CO)C(N)=O)[C@@H](C)CC [SEQ ID NO: 6, H2N-Y-Aib-E-G-T-F-I-S-D-I-S-I-Aib-K[{N-MeGly}3-gGlu-C18OH]-D-R-I-H-Q-Aib-E-F-I-E-W-I-L-A-Q-G-P-S-S-G-A-P-P-P-S-NH2] (H-Y[Aib]EGTFISDLSI[Aib]K([Sar-Sar-Sar-γGlu-C18 diacid])DRIHQ[Aib]EFIEWLLAQGPSSGAPPPS-NH2)	5.4	0.1	> 10	112	>8.9	> 10800	0.3
